Data taken from patent publication US5760230A, “4, 4'-bridged bis-2, 4-diaminoquinazolines” (Bayer Aktiengesellschaft, priority 1996, dated 1998).
pKi: −log10 of the molar value.

How the values were obtained:
[1] = target: apamine binding sites (bovine cerebral membrane, hippocampus); experiment: Binding of ^125 I-apamine to bovine cerebral membrane; conditions: 30 pM ^125 I-apamine, calf hippocampus membranes, pH 7.4, 60 min on ice
Procedure: The compounds according to the invention are ligands for apamine-sensitive potassium channels. This can be shown by studying the affinity for apamine binding sites, e.g. in bovine cerebral membranes.
1) Binding of ^125 I-apamine to bovine cerebral membrane
Calf brains were obtained from the local abattoir. The hippocampus was prepared on ice and a membrane suspension was made up by homogenization twice in buffer (100 mM Tris-HCl, KCl 5 mM, pH 7.4) and centrifugation at 43,000×g. In a total volume of 500 μl, the incubation mixture contained 200 μg of membrane protein, 30 pM ^125 I-apamine and test substances in the concentration range 1×10^-9 to 1×10^-4 M. The non-specific binding of ^125 I-apamine was determined in the presence of 1×10^-7 M unlabelled apamine.
After preincubation for 30 min at room temperature (test substances and membrane homogenate), the samples were placed on ice for 10 min before the radioligand was added. The main incubation time was 60 min on ice. When the reaction time had elapsed, an excess of ice-cooled incubation buffer was added to each sample and the mixture was filtered with suction through cellulose acetate/nitrate membrane filters. The amount of bound ^125 I-apamine was measured with a gamma counter.

[2] = system: potassium channels (PC12 cells); experiment: Non-radioactive Rb^+ efflux assay for the identification of potassium channel modulators in PC12 cells; format: cell-based; conditions: Rattus norvegicus, PC-12, 10 min, test concentration of 10 μM, 50 mM KCl stimulation
Procedure: 2) Non-radioactive Rb^+ efflux assay for the identification of potassium channel modulators
The potassium in PC12 cells is exchanged with rubidium, which is not present in the cells. This exchange is performed by incubating the cells over a period of 4 h in a physiological buffer containing 5.4 mM RbCl without KCl. This rubidium subsequently serves as a tracer for potassium.
The cells laden with Rb^+ in this way are washed three times and then stimulated by depolarization with 50 mM KCl to open potassium channels (10 min), causing Rb^+ to flow out of the cells into the supernatant according to the concentration gradient.
The rubidium contents in the cell supernatant and in the residual cells after they have been lysed with 1% Triton X-100 are then determined by means of atomic absorption spectroscopy. The relative proportion of rubidium in the cell supernatant (=Rb^+ efflux) is used as a measure of the potassium channel activity.
The effect of substances on the channel activity is measured by co-incubating, the test substance over the ten-minute stimulation period and determining its effect on the Rb^+ efflux in the manner described above.

Row | Structure (SMILES) | pKi [1] | inhibition at 10 µM [2] [%]
1 | CCN(CC)c1nc(NCC2CCCC(CNc3nc(N(CC)CC)nc4ccccc34)C2)c2ccccc2n1 (mixture of isomers) [Example 1, 1,3-Bis-[(2-diethylamino-4-quinazolyl)-aminomethyl]-cyclohexane (cis/trans isomeric mixture)] | 6.80 | 80
2 | CCN(CC)c1nc(NCCCCCNc2nc(N(CC)CC)nc3ccccc23)c2ccccc2n1 [Example 2] | 8.10 | 
3 | CCN(CC)c1nc(NCCCNc2nc(N(CC)CC)nc3ccccc23)c2ccccc2n1 [Example 3] |  | 81
